{
  "source": "patent US7138361B2",
  "about": "“Herbicidal heterocycles” (E. I. du Pont de Nemours and Company, priority 2000, dated 2006)",
  "format_in_all_cases": "in vivo",
  "key": {"[1]": {"system": "barnyardgrass (Echinochloa crus-galli)", "experiment": "Test C flooded paddy test", "settings": "for Barnyardgrass plant response rating: Flooded Paddy, scale 0 to 100, 0 no effect, 100 complete control; for Plant response rating, Barnyardgrass: flooded paddy test, scale 0 to 100 (0 no effect, 100 complete control)", "how_it_was_run": "(§1)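 2-leaf-stage plants, flooded paddy; treated; greenhouse 12–14 days; compared with controls by eye; rated 0–100 (0 none, 100 complete control).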"}, "[2]": {"system": "duck salad (Heteranthera limosa)", "experiment": "Test C flooded paddy test", "settings": "for Ducksalad plant response rating: Flooded Paddy, scale 0 to 100, 0 no effect, 100 complete control; for Plant response rating, Ducksalad: flooded paddy test, scale 0 to 100 (0 no effect, 100 complete control)", "how_it_was_run": "as §1"}, "[3]": {"system": "smallflower flatsedge (Cyperus difformis)", "experiment": "Test C flooded paddy test", "settings": "for Flatsedge plant response rating: Flooded Paddy, scale 0 to 100, 0 no effect, 100 complete control; for Plant response rating, Flatsedge: flooded paddy test, scale 0 to 100 (0 no effect, 100 complete control)", "how_it_was_run": "as §1"}, "corn (Zea mays)": {"system": "corn (Zea mays)", "experiment": "Test C preemergence", "how_it_was_run": "(§2)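 Plants held in greenhouse for 12–14 days post-application are scored by eye against controls on a 0–100 control scale. Application timing: preemergence on sown seed, or postemergence on 2–18 cm plants.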"}, "[4]": {"system": "morningglory (Ipomoea hederacea)", "experiment": "Test C preemergence", "how_it_was_run": "as §2"}, "[5]": {"system": "pigweed (Amaranthus retroflexus)", "experiment": "Test C preemergence", "how_it_was_run": "as §2"}, "soybean (Glycine max)": {"system": "soybean (Glycine max)", "experiment": "Test C preemergence", "how_it_was_run": "as §2"}, "[6]": {"system": "cocklebur (Xanthium strumarium)", "experiment": "Test C preemergence", "how_it_was_run": "as §2"}, "[7]": {"system": "yellow nutsedge (Cyperus esculentus)", "experiment": "Test C preemergence", "how_it_was_run": "as §2"}, "[8]": {"system": "velvetleaf (Abutilon theophrasti)", "experiment": "Test C preemergence", "how_it_was_run": "as §2"}, "[9]": {"system": "lambsquarters (Chenopodium album)", "experiment": "Test C preemergence", "how_it_was_run": "as §2"}, "[10]": {"system": "crabgrass (Digitaria sanguinalis)", "experiment": "Test C preemergence", "how_it_was_run": "as §2"}, "Nightshade": {"system": "Nightshade", "experiment": "Test C preemergence"}, "[11]": {"system": "Surinam grass (Brachiaria decumbens)", "experiment": "Test C preemergence", "how_it_was_run": "as §2"}, "[12]": {"system": "giant foxtail (Setaria faberii)", "experiment": "Test C preemergence", "how_it_was_run": "as §2"}, "[13]": {"system": "woolly cupgrass (Eriochloa villosa)", "experiment": "Test C preemergence", "how_it_was_run": "as §2"}, "[14]": {"system": "johnsongrass (Sorghum halepense)", "experiment": "Test C preemergence", "settings": "preemergence", "how_it_was_run": "as §2"}, "kochia (Kochia scoparia)": {"system": "kochia (Kochia scoparia)", "experiment": "Test C preemergence", "how_it_was_run": "as §2"}, "Sunflower [15]": {"system": "Sunflower", "experiment": "Test C preemergence", "settings": "Rate 125 g/ha; scale 0 to 100, 0 no effect, 100 complete control"}, "[16]": {"system": "goosegrass (Eleusine indica)", "experiment": "Test C preemergence", "how_it_was_run": "as §2"}, "[17]": {"system": "bermudagrass (Cynodon dactylon)", "experiment": "Test C preemergence", "how_it_was_run": "as §2"}, "Sunflower [18]": {"system": "Sunflower", "experiment": "Test C preemergence", "settings": "Rate 500 g/ha, visual evaluation after 12 to 14 days"}, "[19]": {"settings": "Rate 125 g/ha, scale 0 to 100, 0 no effect, 100 complete control"}, "[20]": {"settings": "preemergence, Rate 62 g/ha, scale 0 to 100"}, "[21]": {"settings": "preemergence, Rate 500 g/ha, visual evaluation after 12 to 14 days"}, "[22]": {"settings": "preemergence, Rate 250 g/ha, scale 0 to 100, 0 no effect, 100 complete control"}, "[23]": {"settings": "Rate 250 g/ha, scale 0 to 100, 0 no effect, 100 complete control"}},
  "data": [
    {"smiles": "CC(C)(C)c1ccn(C2CCN(c3cccc(SC(F)(F)F)c3)C2=O)n1", "note": "(centres unmarked) [Compound 93]", "values": [
      {"measurement": "Barnyardgrass plant response rating", "setting": "[1]; Rate 250 g/ha", "value": 60},
      {"measurement": "Barnyardgrass plant response rating", "setting": "[1]; Rate 500 g/ha", "value": 70},
      {"measurement": "Plant response rating, Barnyardgrass", "setting": "[1]; Rate 62 g/ha", "value": 0},
      {"measurement": "Plant response rating, Barnyardgrass", "setting": "[1]; Rate 125 g/ha", "value": 50},
      {"measurement": "Ducksalad plant response rating", "setting": "[2]; Rate 250 g/ha", "value": 100},
      {"measurement": "Ducksalad plant response rating", "setting": "[2]; Rate 500 g/ha", "value": 100},
      {"measurement": "Plant response rating, Ducksalad", "setting": "[2]; Rate 62 g/ha", "value": 0},
      {"measurement": "Plant response rating, Ducksalad", "setting": "[2]; Rate 125 g/ha", "value": 90},
      {"measurement": "Flatsedge plant response rating", "setting": "[3]; Rate 250 g/ha", "value": 100},
      {"measurement": "Flatsedge plant response rating", "setting": "[3]; Rate 500 g/ha", "value": 100},
      {"measurement": "Plant response rating, Flatsedge", "setting": "[3]; Rate 62 g/ha", "value": 0},
      {"measurement": "Plant response rating, Flatsedge", "setting": "[3]; Rate 125 g/ha", "value": 100},
      {"measurement": "Plant response rating, Corn", "setting": "corn (Zea mays); [19]", "value": 0},
      {"measurement": "Plant response rating, Corn", "setting": "corn (Zea mays); [20]", "value": 0},
      {"measurement": "Plant response rating (0 to 100), Corn", "setting": "corn (Zea mays); [21]", "value": 30},
      {"measurement": "Plant response rating, Corn", "setting": "corn (Zea mays); [22]", "value": 0},
      {"measurement": "Plant response rating, Morningglory", "setting": "[4]; [19]", "value": 0},
      {"measurement": "Plant response rating, Morningglory", "setting": "[4]; [20]", "value": 0},
      {"measurement": "Plant response rating (0 to 100), Morningglory", "setting": "[4]; [21]", "value": 20},
      {"measurement": "Plant response rating, Morningglory", "setting": "[4]; [22]", "value": 0},
      {"measurement": "Plant response rating, Pigweed", "setting": "[5]; [19]", "value": 20},
      {"measurement": "Plant response rating, Pigweed", "setting": "[5]; [20]", "value": 0},
      {"measurement": "Plant response rating (0 to 100), Pigweed", "setting": "[5]; [21]", "value": 80},
      {"measurement": "Plant response rating, Pigweed", "setting": "[5]; [22]", "value": 20},
      {"measurement": "Plant response rating, Soybean", "setting": "soybean (Glycine max); [19]", "value": 0},
      {"measurement": "Plant response rating, Soybean", "setting": "soybean (Glycine max); [20]", "value": 0},
      {"measurement": "Plant response rating (0 to 100), Soybean", "setting": "soybean (Glycine max); [21]", "value": 20},
      {"measurement": "Plant response rating, Soybean", "setting": "soybean (Glycine max); [22]", "value": 0},
      {"measurement": "Plant response rating, Cocklebur", "setting": "[6]; [19]", "value": 0},
      {"measurement": "Plant response rating, Cocklebur", "setting": "[6]; [20]", "value": 0},
      {"measurement": "Plant response rating (0 to 100), Cocklebur", "setting": "[6]; [21]", "value": 20},
      {"measurement": "Plant response rating, Cocklebur", "setting": "[6]; [22]", "value": 0},
      {"measurement": "Plant response rating, Nutsedge", "setting": "[7]; [19]", "value": 0},
      {"measurement": "Plant response rating, Nutsedge", "setting": "[7]; [20]", "value": 0},
      {"measurement": "Plant response rating (0 to 100), Nutsedge", "setting": "[7]; [21]", "value": 0},
      {"measurement": "Plant response rating, Nutsedge", "setting": "[7]; [22]", "value": 0},
      {"measurement": "Plant response rating, Velvetleaf", "setting": "[8]; [19]", "value": 0},
      {"measurement": "Plant response rating, Velvetleaf", "setting": "[8]; [20]", "value": 0},
      {"measurement": "Plant response rating (0 to 100), Velvetleaf", "setting": "[8]; [21]", "value": 20},
      {"measurement": "Plant response rating, Velvetleaf", "setting": "[8]; [22]", "value": 0},
      {"measurement": "Plant response rating, Lambsquarters", "setting": "[9]; [19]", "value": 70},
      {"measurement": "Plant response rating, Lambsquarters", "setting": "[9]; [20]", "value": 0},
      {"measurement": "Plant response rating (0 to 100), Lambsquarters", "setting": "[9]; [21]", "value": 100},
      {"measurement": "Plant response rating, Lambsquarters", "setting": "[9]; [22]", "value": 90},
      {"measurement": "Plant response rating, Crabgrass", "setting": "[10]; [19]", "value": 100},
      {"measurement": "Plant response rating, Crabgrass", "setting": "[10]; [20]", "value": 80},
      {"measurement": "Plant response rating (0 to 100), Crabgrass", "setting": "[10]; [21]", "value": 100},
      {"measurement": "Plant response rating, Crabgrass", "setting": "[10]; [22]", "value": 100},
      {"measurement": "Plant response rating, Nightshade", "setting": "Nightshade; Rate 62 g/ha, scale 0 to 100", "value": 0},
      {"measurement": "Plant response rating, Nightshade", "setting": "Nightshade; [19]", "value": 0},
      {"measurement": "Plant response rating, Nightshade", "setting": "Nightshade; [23]", "value": 0},
      {"measurement": "Plant response rating, Surinam grass", "setting": "[11]; [19]", "value": 10},
      {"measurement": "Plant response rating, Surinam grass", "setting": "[11]; [20]", "value": 0},
      {"measurement": "Plant response rating (0 to 100), Surinam grass", "setting": "[11]; [21]", "value": 70},
      {"measurement": "Plant response rating, Surinam grass", "setting": "[11]; [22]", "value": 30},
      {"measurement": "Plant response rating, Foxtail, Giant", "setting": "[12]; [19]", "value": 20},
      {"measurement": "Plant response rating, Foxtail, Giant", "setting": "[12]; [20]", "value": 0},
      {"measurement": "Plant response rating (0 to 100), Foxtail, Giant", "setting": "[12]; [21]", "value": 60},
      {"measurement": "Plant response rating, Foxtail, Giant", "setting": "[12]; [22]", "value": 20},
      {"measurement": "Plant response rating, Cupgrass, Woolly", "setting": "[13]; [19]", "value": 20},
      {"measurement": "Plant response rating, Cupgrass, Woolly", "setting": "[13]; [20]", "value": 0},
      {"measurement": "Plant response rating (0 to 100), Cupgrass, Woolly", "setting": "[13]; [21]", "value": 80},
      {"measurement": "Plant response rating, Cupgrass, Woolly", "setting": "[13]; [22]", "value": 70},
      {"measurement": "Plant response rating, Johnsongrass", "setting": "[14]; Rate 62 g/ha, scale 0 to 100", "value": 0},
      {"measurement": "Plant response rating (0 to 100), Johnsongrass", "setting": "[14]; Rate 500 g/ha, visual evaluation after 12 to 14 days", "value": 10},
      {"measurement": "Plant response rating, Johnsongrass", "setting": "[14]; [23]", "value": 10},
      {"measurement": "Plant response rating, Kochia", "setting": "kochia (Kochia scoparia); [19]", "value": 0},
      {"measurement": "Plant response rating, Kochia", "setting": "kochia (Kochia scoparia); [20]", "value": 0},
      {"measurement": "Plant response rating (0 to 100), Kochia", "setting": "kochia (Kochia scoparia); [21]", "value": 80},
      {"measurement": "Plant response rating, Kochia", "setting": "kochia (Kochia scoparia); [22]", "value": 30},
      {"measurement": "Plant response rating, Sunflower", "setting": "Sunflower [15]", "value": 0},
      {"measurement": "Plant response rating, Goosegrass", "setting": "[16]; [19]", "value": 100},
      {"measurement": "Plant response rating, Goosegrass", "setting": "[16]; [20]", "value": 20},
      {"measurement": "Plant response rating (0 to 100), Goosegrass", "setting": "[16]; [21]", "value": 100},
      {"measurement": "Plant response rating, Goosegrass", "setting": "[16]; [22]", "value": 100},
      {"measurement": "Plant response rating, Bermudagrass", "setting": "[17]; [19]", "value": 90},
      {"measurement": "Plant response rating, Bermudagrass", "setting": "[17]; [20]", "value": 0},
      {"measurement": "Plant response rating (0 to 100 where 0 is no effect and 100 is complete control), Bermudagrass", "setting": "[17]; [21]", "value": 100},
      {"measurement": "Plant response rating, Bermudagrass", "setting": "[17]; [22]", "value": 100},
      {"measurement": "Plant response rating (0 to 100), Sunflower", "setting": "Sunflower [18]", "value": 20}
    ]}
  ]
}
